Laboratory results published in patent US12577248B2, “Substituted [1,2,4]triazolo[1,5-a]pyrazines as spleen tyrosine kinase inhibitors” (NANJING RUIJIE PHARMA CO., LTD., priority 2020, dated 2026).

Target: SYK kinase (Homo sapiens, UniProt P43405)
Experiment: SYK kinase assay (HTRF KinEASE-TK)
Type: biochemical
Settings: class symbols, read-out: Syk inhibition IC50
Method: A homogeneous time-resolved fluorescence (HTRF) assay was performed to assess the potential inhibitory effect of compounds on SYK kinase. The HTRF KinEASE-TK kit (Cisbio) was used. During the step, kinase will phosphorylate the substrate, and the resulting fluorescence signal is proportional to the phosphorylation level. The assay was performed in the following steps: First, the testing compounds were diluted 1:3 in succession in DMSO. The 1× kinase buffer contained 1 volume of 5× enzymatic buffer with 4 volumes of distilled water, 5 mM MgCl2, 1 mM MnCl2, and 1 mM DTT. The assays were assembled in 384 well plates (784075, Greiner) where 10 nl of compound solutions were added into each well, and the plates were centrifuged at 1000 g for 1 min. Then, 5 μl of 2×SYK in 1× kinase buffer were added to each well. The plates were centrifuged at 1000 g for 30 s and then incubated at room temperature for 10 min. The reaction was initiated by adding […] of premixed 2×TK-substrate-biotin and ATP mixture in 1× kinase buffer to the assay plates. The plates were centrifuged at 1000 g for 30 s and incubated at room temperature for 30 min. Phosphorylation was detected by adding 5 μl of 4×Sa-XL 665 in HTRF detection buffer into each well of the assay plates. The plates were centrifuged plates at 1000 g for 30 sec, and then incubated at room temperature for 1 h. Finally, the plates were read on an Envision 2104 plate reader (PerkinElmer) and the fluorescence signal was measured at 615 nm (Cryptate) and 665 nm (XL665).
A ratio (665/615 nm) was calculated for each well. The inhibition ratio was calculated as follow: […]
IC50 was calculated by fitting % Inhibition values and log of compound concentrations to nonlinear regression (dose response−variable slope) with GraphPad 6.0.

| IC50 | SMILES |
| --- | --- |
| ≤ 0.05 µM | COc1cc(Nc2nc(-c3ccc4cn[nH]c4c3)cn3ncnc23)ccc1N1CCN(C2CC2)CC1 [I19, N-(4-(4-cyclopropylpiperazin-1-yl)-3-methoxyphenyl)-6-(1H-indazol-6-yl)-[1,2,4]triazolo[1,5-a]pyrazin-8-amine] |
| > 5 µM | Clc1cc(Nc2nc(-c3ccc4cn[nH]c4c3)cn3cnnc23)ccc1N1CCOCC1 [I41, N-(3-chloro-4-morpholinophenyl)-6-(1H-indazol-6-yl)-[1,2,4]triazolo[4,3-a]pyrazin-8-amine] |
| ≤ 0.05 µM | COc1cc(Nc2nc(-c3ccc4cn[nH]c4c3)cn3ncnc23)ccc1N1CCN(CCO)CC1 [I15, 2-(4-(4-((6-(1H-indazol-6-yl)-[1,2,4]triazolo[1,5-a]pyrazin-8-yl)amino)-2-methoxyphenyl)piperazin-1-yl)ethan-1-ol] |
| ≤ 0.05 µM | CN1CCN(c2ccc(Nc3nc(-c4ccc5cn[nH]c5c4)cn4ncnc34)cc2)CC1 [I11, 6-(1H-indazol-6-yl)-N-(4-(4-methylpiperazin-1-yl)phenyl)-[1,2,4]triazolo[1,5-a]pyrazin-8-amine] |
| ≤ 0.05 µM | CCS(=O)(=O)N1CCN(c2ccc(Nc3nc(-c4ccc5cn[nH]c5c4)cn4ncnc34)cc2OC)CC1 [I13, N-(4-(4-(ethylsulfonyl)piperazin-1-yl)-3-methoxyphenyl)-6-(1H-indazol-6-yl)-[1,2,4]triazolo[1,5-a]pyrazin-8-amine] |

The next lines start with the molecule.

| SMILES | IC50 |
| --- | --- |
| c1cc(N2CCOCC2)ncc1Nc1nc(-c2ccc3cn[nH]c3c2)cn2cnnc12 [I43, 6-(1H-indazol-6-yl)-N-(6-morpholinopyridin-3-yl)-[1,2,4]triazolo[4,3-a]pyrazin-8-amine] | > 5 µM |
| Cc1cc(Nc2nc(-c3ccc4cn[nH]c4c3)cn3cnnc23)ccc1N1CCOCC1 [I42, 6-(1H-indazol-6-yl)-N-(3-methyl-4-morpholinophenyl)-[1,2,4]triazolo[4,3-a]pyrazin-8-amine] | > 5 µM |
| c1nc2c(Nc3ccc(N4CCC5(COC5)C4)cc3)nc(-c3ccc4cn[nH]c4c3)cn2n1 [I63, N-(4-(2-oxa-6-azaspiro[3.4]octan-6-yl)phenyl)-6-(1H-indazol-6-yl)-[1,2,4]triazolo[1,5-a]pyrazin-8-amine] | > 5 µM |
| COc1cc(Nc2nc(-c3ccc4c(F)n[nH]c4c3)cn3cnnc23)ccc1N1CCOCC1 [I44, 6-(3-fluoro-1H-indazol-6-yl)-N-(3-methoxy-4-morpholinophenyl)-[1,2,4]triazolo[4,3-a]pyrazin-8-amine] | > 5 µM |
| Fc1n[nH]c2cc(-c3cn4cnnc4c(Nc4ccc(N5CCOCC5)cc4)n3)ccc12 [I45, 6-(3-fluoro-1H-indazol-6-yl)-N-(4-morpholinophenyl)-[1,2,4]triazolo[4,3-a]pyrazin-8-amine] | > 5 µM |
| CC1(C)Oc2cc(-c3cn4ncnc4c(Nc4ccc(N5CCOCC5)cc4)n3)ccc2NC1=O [I27, 2,2-dimethyl-7-(8-((4-morpholinophenyl)amino)-[1,2,4]triazolo[1,5-a]pyrazin-6-yl)-2H-benzo[b][1,4]oxazin-3(4H)-one] | 0.05 to 0.5 µM |
| c1cc2cc(-c3cn4cnnc4c(Nc4ccc(N5CCOCC5)cc4)n3)ccc2[nH]1 [I66, 6-(1H-indol-5-yl)-N-(4-morpholinophenyl)-[1,2,4]triazolo[4,3-a]pyrazin-8-amine] | > 5 µM |
| CC1(C)Oc2cc(-c3cn4ncnc4c(Nc4ccc5c(c4)OC(F)(F)O5)n3)cnc2NC1=O [I39, 7-(8-((2,2-difluorobenzo[d][1,3]dioxol-5-yl)amino)-[1,2,4]triazolo[1,5-a]pyrazin-6-yl)-2,2-dimethyl-2H-pyrido[3,2-b][1,4]oxazin-3(4H)-one] | > 5 µM |
